Experimental data published in paper PMC6332220, “Synthesis, Characterization and Biological Evaluation of Some Quinoxaline Derivatives: A Promising and Potent New Class of Antitumor and Antimicrobial Agents” (Molecules, 2015).
Converted amounts (≈) assume the structure as drawn.

Experiments:
[1] = tested on: Bacillus subtilis; assay: MIC by broth dilution, Bacillus subtilis; format: cell-based; conditions: Gram positive, 0.98-125 µg/mL
Description: (§1) In this study, MIC (quantitative method) was used for evaluation of the antimicrobial activity of tested compounds. Screening was evaluated in vitro using the Broth dilution method according to CLSI [45]. All the bacteria were incubated and activated at 30 °C for 24 h inoculation into nutrient broth and the fungi were incubated in malt extract broth for 48 h. The compounds were dissolved in DMSO and then diluted using […] Mueller-Hinton broth. […] In each case triplicate tests were performed and the average was taken as the final reading. The tubes were then inoculated with the test organisms, grown in their suitable broth at 37 °C for 24 h for tested microorganisms (1 × 10^8 CFU/mL for bacteria and 1 × 10^6 CFU/mL of fungi), each 5 mL received 0.1 mL of the above inoculum and incubated at 37 °C for 24 h.

[2] = tested on: Staphylococcus aureus; assay: MIC by broth dilution, Staphylococcus aureus; format: cell-based; conditions: Gram positive, 0.98-125 µg/mL
Description: as §1

[3] = tested on: Streptococcus faecalis; assay: MIC by broth dilution, Streptococcus faecalis; format: cell-based; conditions: Gram positive, 0.98-125 µg/mL
Description: as §1

[4] = tested on: Escherichia coli; assay: MIC by broth dilution, Escherichia coli; format: cell-based; conditions: Gram negative, 0.98-125 µg/mL
Description: as §1

[5] = tested on: Pseudomonas aeruginosa; assay: MIC by broth dilution, Pseudomonas aeruginosa; format: cell-based; conditions: Gram negative, 0.98-125 µg/mL
Description: as §1

[6] = tested on: Salmonella typhimurium; assay: MIC by broth dilution, Salmonella typhimurium; format: cell-based; conditions: Gram negative, 0.98-125 µg/mL
Description: as §1

[7] = tested on: MCF-7 (breast adenocarcinoma); assay: In vitro cytotoxicity, SRB cell growth assay, MCF-7
Description: (§2) The in vitro cytotoxic activity of the newly synthesized compounds against human breast cell line (MCF7), non-small cell lung cancer NCIH460, CNS cancer SF-268 and WI 38 (normal fibroblast cells) were evaluated using doxorubicin as the reference drug according to the method reported by Skehan et al..
(§3) The newly synthesized compounds were evaluated in vitro against three human cancer cell lines; which are MCF-7 (breast adenocarcinoma), NCI-H460 (non-small cell lung cancer) and SF-268 (CNS cancer), and WI 38 (normal fibroblast cells) were used in this study. MCF-7 was obtained from the European Collection of Cell Cultures (ECACC, Salisbury, UK) but NCI-H460, SF-268 and WI 38 were kindly provided by the National Cancer Institute (NCI, Cairo, Egypt). They grow as monolayer and routinely maintained RPMI-1640 medium supplemented with 5% heat inactivated fetal bovine serum (FBS), 2 mM glutamine and antibiotics (penicillin 100 U/mL, streptomycin 100 µg/mL), at 37 °C in a humidified atmosphere containing 5% CO2. Exponentially growing cells were obtained by plating 1.5 × 10^5 cells/mL for MCF-7 and SF-268, and 0.75 × 10^4 cells/mL for NCI-H460 followed by 24 h of incubation. The effect of the vehicle solvent (DMSO) on the growth of these cell lines was evaluated in all experiments by exposing untreated control cells to the maximum concentration (0.5%) of DMSO used in each assay.
(§4) The effect of compounds on the in vitro growth of human tumor cell lines were evaluated according to the procedure adopted by the National Cancer Institute ([…]) in the “In vitro Anticancer Drug Discovery Screen” that uses the protein-binding dye sulforhodamine B (SRB) to assess cell growth. In the assay protocol, all cells were incubated at 37 °C under humidified atmosphere containing 5% CO2. Briefly, exponentially cells growing in 96-well plates were then exposed for 48 h to five serial concentrations of each compound, starting from a maximum concentration of 150 μg/mL. Following this exposure period adherent cells were fixed, washed and stained. The bound stain was solubilized and the absorbance was measured at 492 nm in a plate reader (Bio-Tek Instruments Inc., Power wave XS, Winston, NC, USA). For each test compound and cell line, a dose response curve was obtained and the inhibitory concentration of 50% (IC50), corresponding to the concentration of the compounds that inhibited 50% of the net cell growth was calculated as described elsewhere. Doxorubicin was used as a positive control and tested in the same manner.

[8] = tested on: NCI-H460 (non-small cell lung cancer); assay: In vitro cytotoxicity, SRB cell growth assay, NCI-H460
Description: as §2, §3, §4

[9] = tested on: SF-268 (CNS cancer); assay: In vitro cytotoxicity, SRB cell growth assay, SF-268
Description: as §2, §3, §4

[10] = tested on: WI 38 (normal fibroblast cells); assay: In vitro cytotoxicity, SRB cell growth assay, normal cells WI 38; format: cell-based, human; conditions: 48 h exposure, non-cytotoxic = IC50 >100 μg/mL
Description: as §2, §3, §4

[11] = tested on: Bacillus subtilis; assay: Disk diffusion, Bacillus subtilis; format: cell-based; conditions: Gram positive, 8.0 mm disks, 10 μL
Description: (§5) The disk diffusion method was used for determination of the antimicrobial activity using ampicillin, gentamicin and amphotericin B as reference drugs. The results were recorded for each compounds as the average diameter as inhibition zones (IZ) of bacterial or fungal growth around the discs in mm as shown in Table 2.
(§6) Antimicrobial activities were carried out against highly pathogenic strains; three strains of Gram positive bacteria (Bacillus subtilis, Staphylococcus aureus and Streptococcus faecalis), four strains of Gram negative bacteria (Escherichia coli, Neisseria gonorrhoeae, Pseudomonas aeruginosa and Salmonella typhimurium) and three fungi strains (Aspergillus flavus, Aspergillus fumigatus and Candida albicans) isolated from primary agar plates. Antimicrobial activity of the tested samples was determined using a modified Kriby-Bauer disk diffusion method. Briefly, 100 µL of the test bacteria/fungi were grown in 10 mL of fresh media until they reached a count approximately 10^8 cells/mL for bacteria or 10^5 cells/mL for fungi. 100 µL of microbial suspension was spread onto agar plates corresponding to the broth in which they were maintained. The inoculated plates of bacterial strains were incubated at 35–37 °C for 24–48 h, while the inoculated plates of fungal strains such as A. flavus and A. fumigatus were incubated at 25 °C for 48 h and yeast as C. albicans was incubated at 30 °C for 24–48 h.
(§7) The agar disk diffusion (qualitative) method was used in this investigation for determination of the preliminary antibacterial and antifungal activities. The agar used was Mueller-Hinton agar plates that are rigorously tested for composition and pH. Further the depth of the agar in the plate is a factor to be considered in the disk diffusion method.
(§8) Reference drugs: ampicillin was used as a standard antibacterial drug for Gram positive bacteria, gentamicin as a standard antibacterial drug for Gram negative bacteria and amphotericin B as antifungal standard drug.
(§9) Bacterial and fungal strains were spread onto the surface of the agar plates using sterile cotton swabs. For evaluation of antibacterial activities, blank paper disks (Schleicher & Schuell, Alicante, Spain) with a diameter of 8.0 mm were saturated with 10 μL of tested concentration of the stock solutions. Disks were dried and then placed onto inoculated agar plates. The plates of bacterial strains were reincubated at 35–37 °C for 24–48 h, while the plates of fungal strains such as A. flavus and A. fumigatus were reincubated at 25 °C for 48 h and yeast as C. albicans was reincubated at 30 °C for 24–48 h as mentioned above. […] For an accurate analysis, tests were run in triplicate for each strain to avoid any error as described in Table 2.

[12] = tested on: Staphylococcus aureus; assay: Disk diffusion, Staphylococcus aureus; format: cell-based; conditions: Gram positive, 8.0 mm disks, 10 μL
Description: as §5, §6, §7, §8, §9

[13] = tested on: Streptococcus faecalis; assay: Disk diffusion, Streptococcus faecalis; format: cell-based; conditions: Gram positive, 8.0 mm disks, 10 μL
Description: as §5, §6, §7, §8, §9

[14] = tested on: Escherichia coli; assay: Disk diffusion, Escherichia coli; format: cell-based; conditions: Gram negative, 8.0 mm disks, 10 μL
Description: as §5, §6, §7, §8, §9

[15] = tested on: Neisseria gonorrhoeae; assay: Disk diffusion, Neisseria gonorrhoeae; format: cell-based; conditions: Gram negative, 8.0 mm disks, 10 μL
Description: as §5, §6, §7, §8, §9

[16] = tested on: Pseudomonas aeruginosa; assay: Disk diffusion, Pseudomonas aeruginosa; format: cell-based; conditions: Gram negative, 8.0 mm disks, 10 μL
Description: as §5, §6, §7, §8, §9

[17] = tested on: Salmonella typhimurium; assay: Disk diffusion, Salmonella typhimurium; format: cell-based; conditions: Gram negative, 8.0 mm disks, 10 μL
Description: as §5, §6, §7, §8, §9

[18] = tested on: Aspergillus flavus; assay: Disk diffusion, Aspergillus flavus; format: cell-based; conditions: Fungi, 8.0 mm disks, 10 μL
Description: as §5, §6, §7, §8, §9
(§10) Disk diffusion method for filamentous fungi testing by using approved standard method (M02-A11) developed by the CLSI for evaluating the susceptibilities of filamentous fungi to antifungal agents. Disk diffusion method for yeasts developed by using approved standard method (M44-A2) by the CLSI [44]. Agar-based methods such as disk diffusion can be good alternatives because they are simpler and faster than broth-based methods.

[19] = tested on: Aspergillus fumigatus; assay: Disk diffusion, Aspergillus fumigatus; format: cell-based; conditions: Fungi, 8.0 mm disks, 10 μL
Description: as §5, §6, §7, §8, §9, §10

[20] = tested on: Candida albicans; assay: Disk diffusion, Candida albicans; format: cell-based; conditions: Fungi, 8.0 mm disks, 10 μL
Description: as §5, §6, §7, §8, §9, §10

## NNc1nc2ccc(Br)cc2n2nnnc12 [Compound 10]
[1]; Bacillus subtilis, 24 h, read-out: Minimum Inhibitory Concentration (MIC) (µg/mL) Bacillus subtilis
  MIC: 0.98 µg/mL (≈ 3.5 µM)
[2]; Staphylococcus aureus, 24 h, read-out: Minimum Inhibitory Concentration (MIC) (µg/mL) Staphylococcus aureus
  MIC: 0.98 µg/mL (≈ 3.5 µM)
[3]; Enterococcus faecalis, 24 h, read-out: Minimum Inhibitory Concentration (MIC) (µg/mL) Streptococcus faecalis
  MIC: 0.98 µg/mL (≈ 3.5 µM)
[4]; Escherichia coli, 24 h, read-out: Minimum Inhibitory Concentration (MIC) (µg/mL) Escherichia coli
  MIC: 3.9 µg/mL (≈ 13.9 µM)
[5]; Pseudomonas aeruginosa, 24 h, read-out: Minimum Inhibitory Concentration (MIC) (µg/mL) Pseudomonas aeruginosa
  MIC: 125 µg/mL (≈ 446 µM)
[6]; Salmonella enterica, TYPHIMURIUM, 24 h, read-out: Minimum Inhibitory Concentration (MIC) (µg/mL) Salmonella typhimurium
  MIC: 1.95 µg/mL (≈ 6.96 µM)

## 9-Bromo-di-1,2,4-triazolo[1,5-a:5′,1′-c]quinoxaline [Compound 13]
[7]; MCF-7, SRB, 48 h exposure
  IC50 (μg/mL) MCF-7: 37.64 ± 6.72 µg/mL
[8]; NCI-H460, SRB, 48 h exposure
  IC50 (μg/mL) NCI-H460: 36.05 ± 5.23 µg/mL
[9]; SF-268, SRB, 48 h exposure
  IC50 (μg/mL) SF-268: 29.35 ± 7.01 µg/mL
[10]
  IC50 (μg/mL) WI 38: 18.62 ± 1.21 µg/mL
[11]
  Inhibition Zone Diameter (IZ) (mm) Bacillus subtilis: 17 mm
[12]
  Inhibition Zone Diameter (IZ) (mm) Staphylococcus aureus: 16 mm
[13]
  Inhibition Zone Diameter (IZ) (mm) Streptococcus faecalis: 20 mm
[14]
  Inhibition Zone Diameter (IZ) (mm) Escherichia coli: 17 mm
[15]
  Inhibition Zone Diameter (IZ) (mm) Neisseria gonorrhoeae: R (R (IZ = 0 mm))
[16]
  Inhibition Zone Diameter (IZ) (mm) Pseudomonas aeruginosa: 19 mm
[17]
  Inhibition Zone Diameter (IZ) (mm) Salmonella typhimurium: 17 mm
[18]
  Inhibition Zone Diameter (IZ) (mm) Aspergillus flavus: R (R (IZ = 0 mm))
[19]
  Inhibition Zone Diameter (IZ) (mm) Aspergillus fumigatus: R (R (IZ = 0 mm))
[20]
  Inhibition Zone Diameter (IZ) (mm) Candida albicans: R (R (IZ = 0 mm))
[1]
  Minimum Inhibitory Concentration (MIC) (µg/mL) Bacillus subtilis: 1.95 µg/mL
[2]
  Minimum Inhibitory Concentration (MIC) (µg/mL) Staphylococcus aureus: 7.81 µg/mL
[3]
  Minimum Inhibitory Concentration (MIC) (µg/mL) Streptococcus faecalis: 62.5 µg/mL
[4]
  Minimum Inhibitory Concentration (MIC) (µg/mL) Escherichia coli: 7.81 µg/mL
[5]
  Minimum Inhibitory Concentration (MIC) (µg/mL) Pseudomonas aeruginosa: 125 µg/mL
[6]
  Minimum Inhibitory Concentration (MIC) (µg/mL) Salmonella typhimurium: 3.9 µg/mL

## Clc1ccc(C=NNc2nc3cc(Br)ccc3nc2Cl)cc1 [Compound 8, 6-Bromo-2-chloro-3-[2-(4-chlorobenzylidene)hydrazinyl]quinoxaline]
[7]; Homo sapiens, MCF7, 48 h, read-out: IC50 (μg/mL) MCF-7
  IC50: 42.2 ± 2.46 µg/mL (≈ 106 µM)
[8]; Homo sapiens, NCI-H460, 48 h, read-out: IC50 (μg/mL) NCI-H460
  IC50: 26.6 ± 2.63 µg/mL (≈ 67.2 µM)
[9]; Homo sapiens, SF-268, 48 h, read-out: IC50 (μg/mL) SF-268
  IC50: 35.3 ± 12.8 µg/mL (≈ 89.2 µM)
[10]; Homo sapiens, WI-38, 48 h
  IC50: 10.6 ± 5.51 mg/L (≈ 26.7 µM)
[11]
  Inhibition Zone Diameter (IZ) (mm) Bacillus subtilis: 9 mm
[12]
  Inhibition Zone Diameter (IZ) (mm) Staphylococcus aureus: 9 mm
[13]
  Inhibition Zone Diameter (IZ) (mm) Streptococcus faecalis: 10 mm
[14]
  Inhibition Zone Diameter (IZ) (mm) Escherichia coli: 11 mm
[15]
  Inhibition Zone Diameter (IZ) (mm) Neisseria gonorrhoeae: 9 mm
[16]
  Inhibition Zone Diameter (IZ) (mm) Pseudomonas aeruginosa: 9 mm
[17]
  Inhibition Zone Diameter (IZ) (mm) Salmonella typhimurium: 7 mm
[18]
  Inhibition Zone Diameter (IZ) (mm) Aspergillus flavus: R (R (IZ = 0 mm))
[19]
  Inhibition Zone Diameter (IZ) (mm) Aspergillus fumigatus: R (R (IZ = 0 mm))
[20]
  Inhibition Zone Diameter (IZ) (mm) Candida albicans: R (R (IZ = 0 mm))
other
  melting point: 187 to 189 °C
